Results from patent US10441589B2, “Combinations and methods comprising a capsid assembly inhibitor” (Novira Therapeutics, Inc., priority 2016, dated 2019).
Structures can show the parent of a compound that is named as a salt. Where two headings read alike, the source gives them in different places. Marks after values point to notes of the source that are not given here.

Legend:
rtA181V HBV variant = test: Antiviral activity in HepG2 cells transiently transfected with rtA181V HBV variant; type: cell-based, HBV genotype B; conditions: for Fold Change rtA181V: EC50 fold change relative to mean wild-type EC50, mean ± SD
Method: (§1) In this example, the antiviral activity of Compound 1 was determined using HepG2 liver cells transiently transfected with plasmids expression replication-competent HBV DNA and quantitation of intracellular encapsidated HBV DNA. The antiviral activity of Compound 1 was measured against nucleoside inhibitor sensitive, wild-type HBV, as well as against HBV variants resistant to nucleoside analogs that contain defined amino acid changes in the coding sequence of the reverse transcriptase protein: rtL180M/M204V, rtN236T, rtA181V, rtA181V/N236T, and rtL180M/M204V/N236T.
(§2) Plasmid DNA constructs containing a 1.1×HBV genome under the control of a CMV promoter were previously cloned from serum of an HBV infected patient prior to LMV treatment (Genbank AY220698, Fudan University, China; SEQ ID NO:1, see Table 1) and after development of resistance to LMV (Genbank AY220697, Fudan University, China; SEQ ID NO:2, see Table 1) (Zhang J M et al. 2005. J Med Virol 77: 203-208). Genotyping analysis confirmed that both isolates belong to genotype B HBV, and that the isolate collected after the development of resistance to LMV contained two amino acid changes within the polymerase gene (L180M/M204V). The HBV variant was named rtL180M/M204V to indicate that the amino acid changes were present in the reverse transcriptase (rt) protein. Two additional plasmids were generated by introducing coding sequence changes resulting in the amino acid changes N236T and A181V in the HBV polymerase, respectively. […]
(§3) HepG2 cells were seeded in collagen coated 96-well plates (BIOCOAT™; Fisher Scientific, Catalog#354407) at a density of 20,000 cells/well and allowed to attach overnight at 37° C. and 5% CO2. […] Cells were incubated with compounds for three days, after which intracellular HBV DNA was extracted from cells and levels of secreted Gaussian luciferase was determined from the medium using the Gaussia Flash Luciferase assay kit (THERMO SCIENTIFIC™, Fisher Scientific, Catalog#16158). […]

rtN236T HBV variant = test: Antiviral activity in HepG2 cells transiently transfected with rtN236T HBV variant; type: cell-based, HBV genotype B; conditions: EC50 fold change relative to mean wild-type EC50; mean ± SD
Method: as §1
as §2, with “respectively. The nucleotide changes were introduced into the wild type genotype B plasmid by site directed mutagenesis according to manufacturer recommendation (Agilent Technologies; Santa Clara, Calif.; Catalog#200519) using the following primers and their corresponding reverse complement sequence (nucleotide change underlined): 5′-CTTTGGGTATACATTTAACCCCTCACAAAAC-3′ (rtN236T; SEQ ID NO:3), 5′-GTCCGTTTCTCTTGGTTCAGTTTACTAGTG-3′ (rtA181V; SEQ ID NO:4). In two additional plasmid constructs, the rtN236T amino acid change was also added into the rtA181V and rtL180M/M204V plasmids to generate the rtA181V/N236T double mutant and rtL180M/M204V/N236T triple mutant HBV variants, respectively.” for “respectively.”
as §3

[1] = system: rtL180M/M204V/N236T HBV variant; test: Antiviral activity in HepG2 cells transiently transfected with rtL180M/M204V/N236T HBV variant; type: cell-based, HBV genotype B; conditions: EC50 fold change relative to mean wild-type EC50; mean ± SD
Method: as §1, §2, §3

[2] = system: rtL180M/M204V HBV variant; test: Antiviral activity in HepG2 cells transiently transfected with rtL180M/M204V HBV variant; type: cell-based, HBV genotype B; conditions: for Fold Change rtL180M/M204V: EC50 fold change relative to mean wild-type EC50, mean ± SD
Method: as §1
as §2, with “respectively. The nucleotide changes were introduced into the wild type genotype B plasmid by site directed mutagenesis according to manufacturer recommendation (Agilent Technologies; Santa Clara, Calif.; Catalog#200519) using the following primers and their corresponding reverse complement sequence (nucleotide change underlined): 5′-CTTTGGGTATACATTTAACCCCTCACAAAAC-3′ (rtN236T; SEQ ID NO:3), 5′-GTCCGTTTCTCTTGGTTCAGTTTACTAGTG-3′ (rtA181V; SEQ ID NO:4). In two additional plasmid constructs, the rtN236T amino acid change was also added into the rtA181V and rtL180M/M204V plasmids to generate the rtA181V/N236T double mutant and rtL180M/M204V/N236T triple mutant HBV variants, respectively.” for “respectively.”
as §3

[3] = Cell viability of primary human hepatocytes (CellTiter-Glo, intracellular ATP); type: cell-based; conditions: human, cryopreserved primary human hepatocytes
Method: (§4) Cryopreserved primary human hepatocytes from individual donors (primary hepatocyte IDs: HuM4038, HuM4055A, and HuM4059) were purchased from Triangle Research Labs (TRL; Research Triangle Park, N.C.). Cells were thawed using hepatocyte thawing medium (TRL, Catalog#MCHT50) according to manufacturers' recommendations. After centrifugation, cells were resuspended in supplemented hepatocyte plating medium (TRL, Catalog#MP250). Cells were plated in collagen Type I coated 96-well plates (Corning; Corning, N.Y.; Catalog#356407) at a density of 40,000 cells per well and maintained in humidified incubators at 37° C. and 5% CO2 overnight prior to addition of test compounds.
(§5) For each donor, three 96-well plates were set up to evaluate the effect of increasing concentrations of Compound 1 either alone or in combination with nucleoside analogs on hepatocyte cell viability. On each plate, cells were incubated with Compound 1 alone as duplicates, or Compound 1 in the presence of LMV, TFV, or ETV as triplicates. The effects of nucleoside analogs alone on hepatocyte cell viability were also determined in triplicates for each donor. Compound 1 was half-log serially diluted in DMSO (Sigma, Catalog #D2650) and added to primary human hepatocytes either alone or in combination with LMV (30 and 300 μM), TFV (30 μM), or ETV (30 μM). Single and combined drugs were added to primary human hepatocytes at a final DMSO (Sigma D2650) concentration of 0.5% across all concentrations. Cells were incubated with compounds for three days, after which medium was removed and fresh medium containing compounds was added and incubated for another three days. As a no compound control, primary human hepatocytes were treated with 0.5% DMSO, and these values were then used to define the 0% inhibition level. Background signal was determined as the mean value from wells containing only culture medium. Cell viability was monitored by using CellTiter-Glo cell viability reagent according to the manufacturer protocol (Promega; Madison, Wis.; G7573). Chemiluminescence signal proportional to the amount of cellular ATP was measured by using the Victor X4 plate reader (Perkin Elmer; Waltham, Mass.). The mean background signal from the medium only wells was subtracted from all other samples, and percent inhibition was calculated using equation E1 (as in Example 1): % inhibition=(DMSOave−Xi)/DMSOave×100% (E1):
(§6) where DMSOave is the mean signal calculated from the wells that were treated with 0.5% DMSO control (0% inhibition control) and X, is the signal measured from the individual wells. CC50 values were determined from the % inhibition data obtained at different compound concentrations by non-linear fitting using Graphpad Prism software and equation E3, in cases were % inhibition values exceeded 50% at the highest concentration tested. Y=Ymin+(Ymax−Yin)/(1+10^(LogCC50−X)×HillSlope) (E3):
(§7) where Y represents percent inhibition values and X represents the logarithm of compound concentrations.

wild type HBV = test: Antiviral activity in HepG2 cells transiently transfected with wild-type HBV, intracellular encapsidated HBV DNA; type: cell-based, HBV genotype B; conditions: Hepatitis B virus, 72 h, HepG2 transient transfection, 3 days, mean ± SD, at least three studies, read-out: WT EC50
Method: as §1
as §2, with “respectively. The nucleotide changes were introduced into the wild type genotype B plasmid by site directed mutagenesis according to manufacturer recommendation (Agilent Technologies; Santa Clara, Calif.; Catalog#200519) using the following primers and their corresponding reverse complement sequence (nucleotide change underlined): 5′-CTTTGGGTATACATTTAACCCCTCACAAAAC-3′ (rtN236T; SEQ ID NO:3), 5′-GTCCGTTTCTCTTGGTTCAGTTTACTAGTG-3′ (rtA181V; SEQ ID NO:4). In two additional plasmid constructs, the rtN236T amino acid change was also added into the rtA181V and rtL180M/M204V plasmids to generate the rtA181V/N236T double mutant and rtL180M/M204V/N236T triple mutant HBV variants, respectively.” for “respectively.”
as §3

[4] = system: rtA181V/N236T HBV variant; test: Antiviral activity in HepG2 cells transiently transfected with rtA181V/N236T HBV variant; type: cell-based, HBV genotype B; conditions: EC50 fold change relative to mean wild-type EC50; mean ± SD
Method: as §1, with “rtL180M/M204V/N236T. […]” for “rtL180M/M204V/N236T.”
as §3

[5] = system: HBV DNA replication in HepG2.2.15 cells; test: 6-day HBV antiviral assay in HepG2.2.15 cells, qPCR of HBV DNA in supernatant, MacSynergy II; type: cell-based
Method: The anti-HBV activity of combinations of Compound 2 and Compound 3 with the nucleos(t)ide analogues ETV or TFV was assessed in a 6-day HBV antiviral assay using qPCR for the detection of HBV DNA in the cell culture supernatant as a read-out. The combination effect was analyzed using Mac Synergy II software. The anti-HBV activity of ETV and TFV when tested as single agents in HepG2.2.15 cells as well (Table 14).
During the antiviral testing, HepG2.2.15 cells were cultured in RPMI1640 medium and the FBS was reduced to 2%. Cells were plated at a density of 50.000 cells per well into a 96-well plate.
One day after seeding of the HepG2.2.15 cells, the supernatant was removed and 200 μL medium with test compounds, diluted in a checkerboard fashion, was added to the cells. […] HBV DNA was detected by quantitative real time PCR (qPCR). HBV DNA was quantified by a real-time PCR assay using a LightCycler480 Probes Master kit (Roche) with primers 5′-[sequence]-3′ (sense) and 5′-[sequence]-3′ (antisense, SEQ ID NO: 7). […]
The percentage inhibition values obtained for each combination of compound concentration was calculated as the average of 3 to 5 replicate plates of the same combination per experiment. To robustly identify outliers, the distance from the average of the other 4 replicates was calculated for every data point. […]

[6] = system: primary human hepatocytes; test: Cell viability of primary human hepatocytes (CellTiter-Glo, intracellular ATP); type: cell-based; conditions: 6 days; for cell viability at single concentrations: 30 or 300 μM LMV, 30 μM TFV, 30 μM ETV, three donors
Method: as §4, §5, §6, §7

[7] = donor HuM4038, first HuM4038 column of Table 3, 6 days, read-out: HuM4038 CC50
[8] = donor HuM4038, second HuM4038 column of Table 3, 6 days, read-out: HuM4038 CC50
[9] = donor HuM4055A, 6 days, read-out: HuM4055A CC50
[10] = donor HuM4059, 6 days, read-out: HuM4059 CC50

Compound | Fold Change rtA181V (rtA181V HBV variant) | Fold Change rtN236T (rtN236T HBV variant) | Fold Change rtL180M/M204V/N236T [1] | Fold Change rtL180M/M204V [2] | CC50 at 6 days [3, 7] [µM] | CC50 at 6 days [3, 8] [µM] | CC50 at 6 days [3, 9] [µM] | CC50 at 6 days [3, 10] [µM] | EC50 (wild type HBV) [µM] | Fold Change rtA181V/N236T [4] | cell viability at single concentrations [6] | other results
O=C(Nc1cc(F)c(F)c(F)c1)c1ccc(F)c(S(=O)(=O)N2CCC(O)CC2)c1 [Compound 1, 4-fluoro-3-((4-hydroxypiperidin-1-yl)sulfonyl)-N-(3,4,5,-trifluorophenyl)benzamide] | 0.82 ± 0.19^ns | 0.85 ± 0.40^ns | 1.4 ± 0.5^ns | 1.3 ± 0.6^ns | 16 | 26 | 19 | 82 | 0.31 ± 0.1 | 0.85 ± 0.26^ns |  | CC50 at 6 days ([3]; Table 4, alone, donor HuM4038, read-out: Cmpd (I) CC50): 26 µM; CC50 at 6 days ([3]; Table 4, alone, donor HuM4055A, read-out: Cmpd (I) CC50): 19 µM; CC50 at 6 days ([3]; Table 4, alone, donor HuM4059, read-out: Cmpd (I) CC50): 83 µM; CC50 at 6 days ([3]; Table 5, alone, donor HuM4038, read-out: Cmpd (I) CC50): 16 µM; CC50 at 6 days ([3]; Table 5, alone, donor HuM4055A, read-out: Cmpd (I) CC50): 19 µM; CC50 at 6 days ([3]; Table 5, alone, donor HuM4059, read-out: Cmpd (I) CC50): 83 µM; CC50 at 6 days ([3]; Table 6, alone, donor HuM4038, read-out: Cmpd (I) CC50): 16 µM; CC50 at 6 days ([3]; Table 6, alone, donor HuM4055A, read-out: Cmpd (I) CC50): 19 µM; CC50 at 6 days ([3]; Table 6, alone, donor HuM4059, read-out: Cmpd (I) CC50): 83 µM; CC50 at 6 days ([3]; range over three donors (HuM4038, HuM4055A, HuM4059), 6 days, read-out: CC50 values, range): 16 to 82 µM
C=C1[C@H](CO)[C@@H](O)C[C@@H]1n1cnc2c(=O)[nH]c(N)nc21 [ETV, entecavir] |  | 0.67 ± 0.22^ns |  |  | > 30 | > 30 | > 30 | > 30 | 0.0014 ± 0.0004 |  | No reduction of cell viability | EC50 ([5]; Hepatitis B virus, HepG2.2.15, read-out: Median EC50): 0.07 nM
Nc1ccn([C@@H]2CS[C@H](CO)O2)c(=O)n1 [LMV, Lamivudine] |  | 1.0 ± 0.5^ns | >190 | >190 | > 30 | > 300 | > 300 | > 300 | 0.53 |  | No reduction of cell viability | 
CC(C)OC(=O)OCOP(=O)(CO[C@H](C)Cn1cnc2c(N)ncnc21)OCOC(=O)OC(C)C [TDF, tenofovir disoproxil fumarate] | 1.4 ± 0.05^ns | 2.2 ± 1.0^b | 2.9 ± 1.5^b | 1.1 ± 0.3^ns |  |  |  |  | 0.032 | 2.8 ± 1.4^b |  | EC50 (rtA181V HBV variant; Hepatitis B virus, HepG2, read-out: mean EC50 against rtA181V variant): 0.043 µM; EC50 ([2]; Hepatitis B virus, HepG2, read-out: mean EC50 against rtL180M/M204V variant): 0.034 µM
C[C@H](Cn1cnc2c(N)ncnc21)OCP(=O)(O)O [TFV, tenofovir] |  |  |  |  |  |  |  |  |  |  | No reduction of cell viability | EC50 ([5]; single agents in HepG2.2.15 cells, read-out: Median EC50): 15 nM; CC50 ([6]; donor HuM4038, first HuM4038 column of Table 3, read-out: HuM4038 CC50): > 30 µM; CC50 ([6]; donor HuM4038, second HuM4038 column of Table 3, read-out: HuM4038 CC50): > 30 µM; CC50 ([6]; donor HuM4055A, read-out: HuM4055A CC50): > 30 µM; CC50 ([6]; donor HuM4059, read-out: HuM4059 CC50): > 30 µM
